# Measured values taken from ChEMBL document CHEMBL1145498, “A systematic interaction map of validated kinase inhibitors with Ser/Thr kinases” (Proc Natl Acad Sci U S A, 2007).
# Molecular target: Calcium/calmodulin-dependent protein kinase type 1G (Homo sapiens) (UniProt Q96NX5)
# Sequence (Q96NX5 whole entry): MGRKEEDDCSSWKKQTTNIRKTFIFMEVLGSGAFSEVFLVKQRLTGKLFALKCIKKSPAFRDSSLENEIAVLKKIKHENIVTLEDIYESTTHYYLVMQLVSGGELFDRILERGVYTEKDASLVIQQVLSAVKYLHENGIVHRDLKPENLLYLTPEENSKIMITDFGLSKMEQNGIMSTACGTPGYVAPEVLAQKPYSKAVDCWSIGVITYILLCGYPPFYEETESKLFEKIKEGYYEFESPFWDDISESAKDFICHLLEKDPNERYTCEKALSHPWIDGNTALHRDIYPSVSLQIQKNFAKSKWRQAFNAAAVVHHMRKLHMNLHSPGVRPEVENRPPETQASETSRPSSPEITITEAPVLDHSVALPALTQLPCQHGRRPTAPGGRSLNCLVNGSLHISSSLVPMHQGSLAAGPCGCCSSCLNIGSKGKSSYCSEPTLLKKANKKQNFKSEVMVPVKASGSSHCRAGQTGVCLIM
row,ΔTm [°C],Compound
1,1,COc1cc2ncnc(Nc3ccc(F)c(Cl)c3)c2cc1OCCCN1CCOCC1
2,-0.8,O=C1Nc2cc(Br)ccc2/C1=C1/Nc2ccccc2/C1=N\O
3,0.4,COc1ccc(CNC(=O)Nc2ncc([N+](=O)[O-])s2)cc1
4,1.3,O=c1c(-c2ccc(F)cc2)c(-c2ccncc2)[nH]n1-c1ccc(Cl)cc1

row,Compound,ΔTm [°C]
1,"COC(=O)[C@]1(O)C[C@@H]2O[C@@]1(C)n1c3ccccc3c3c4c(c5c6ccccc6n2c5c31)C(=O)NC4 (single isomer, unassigned)",2.2

# Molecular target: Cyclin-dependent kinase 6 (Homo sapiens) (UniProt Q00534)
# Sequence (Q00534 whole entry): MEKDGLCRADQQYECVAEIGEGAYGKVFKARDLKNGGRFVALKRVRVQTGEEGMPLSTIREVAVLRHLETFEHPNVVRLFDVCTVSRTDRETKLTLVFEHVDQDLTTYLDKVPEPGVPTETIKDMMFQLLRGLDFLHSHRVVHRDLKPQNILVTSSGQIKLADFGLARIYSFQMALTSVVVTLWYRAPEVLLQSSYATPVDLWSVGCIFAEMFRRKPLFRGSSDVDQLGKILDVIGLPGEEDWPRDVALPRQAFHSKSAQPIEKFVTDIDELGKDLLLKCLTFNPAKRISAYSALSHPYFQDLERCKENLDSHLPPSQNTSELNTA
row,ΔTm [°C],Compound
1,0.6,COc1cc2ncnc(Nc3ccc(F)c(Cl)c3)c2cc1OCCCN1CCOCC1
2,-0.1,O=C1Nc2cc(Br)ccc2/C1=C1/Nc2ccccc2/C1=N\O
3,0.2,COc1ccc(CNC(=O)Nc2ncc([N+](=O)[O-])s2)cc1
4,0.6,O=c1c(-c2ccc(F)cc2)c(-c2ccncc2)[nH]n1-c1ccc(Cl)cc1

row,Compound,ΔTm [°C]
1,"COC(=O)[C@]1(O)C[C@@H]2O[C@@]1(C)n1c3ccccc3c3c4c(c5c6ccccc6n2c5c31)C(=O)NC4 (single isomer, unassigned)",3.1

# Molecular target: Dual specificity protein kinase CLK3 (Homo sapiens) (UniProt P49761)
# Sequence (P49761 whole entry, looked up): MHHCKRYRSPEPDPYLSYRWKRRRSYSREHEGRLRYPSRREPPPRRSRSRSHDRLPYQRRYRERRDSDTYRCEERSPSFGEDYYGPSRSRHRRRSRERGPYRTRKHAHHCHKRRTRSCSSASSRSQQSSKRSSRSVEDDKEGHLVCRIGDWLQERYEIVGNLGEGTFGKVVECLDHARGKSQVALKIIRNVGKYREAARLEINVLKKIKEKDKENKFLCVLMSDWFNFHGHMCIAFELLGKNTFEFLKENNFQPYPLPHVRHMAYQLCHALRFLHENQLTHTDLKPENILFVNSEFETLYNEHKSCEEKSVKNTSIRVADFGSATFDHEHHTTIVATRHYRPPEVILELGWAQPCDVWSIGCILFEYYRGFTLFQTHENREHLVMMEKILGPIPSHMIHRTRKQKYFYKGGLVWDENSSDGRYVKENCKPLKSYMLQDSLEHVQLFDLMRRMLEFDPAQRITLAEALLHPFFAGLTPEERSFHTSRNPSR
row,ΔTm [°C],Compound
1,0.8,COc1cc2ncnc(Nc3ccc(F)c(Cl)c3)c2cc1OCCCN1CCOCC1
2,-0.8,O=C1Nc2cc(Br)ccc2/C1=C1/Nc2ccccc2/C1=N\O
3,0.4,COc1ccc(CNC(=O)Nc2ncc([N+](=O)[O-])s2)cc1
4,0.3,O=c1c(-c2ccc(F)cc2)c(-c2ccncc2)[nH]n1-c1ccc(Cl)cc1

row,Compound,ΔTm [°C]
1,"COC(=O)[C@]1(O)C[C@@H]2O[C@@]1(C)n1c3ccccc3c3c4c(c5c6ccccc6n2c5c31)C(=O)NC4 (single isomer, unassigned)",0.6

# Molecular target: T1, Mitogen-activated protein kinase kinase kinase 5 (Homo sapiens) (UniProt Q99683)
# T1 sequence (whole entry): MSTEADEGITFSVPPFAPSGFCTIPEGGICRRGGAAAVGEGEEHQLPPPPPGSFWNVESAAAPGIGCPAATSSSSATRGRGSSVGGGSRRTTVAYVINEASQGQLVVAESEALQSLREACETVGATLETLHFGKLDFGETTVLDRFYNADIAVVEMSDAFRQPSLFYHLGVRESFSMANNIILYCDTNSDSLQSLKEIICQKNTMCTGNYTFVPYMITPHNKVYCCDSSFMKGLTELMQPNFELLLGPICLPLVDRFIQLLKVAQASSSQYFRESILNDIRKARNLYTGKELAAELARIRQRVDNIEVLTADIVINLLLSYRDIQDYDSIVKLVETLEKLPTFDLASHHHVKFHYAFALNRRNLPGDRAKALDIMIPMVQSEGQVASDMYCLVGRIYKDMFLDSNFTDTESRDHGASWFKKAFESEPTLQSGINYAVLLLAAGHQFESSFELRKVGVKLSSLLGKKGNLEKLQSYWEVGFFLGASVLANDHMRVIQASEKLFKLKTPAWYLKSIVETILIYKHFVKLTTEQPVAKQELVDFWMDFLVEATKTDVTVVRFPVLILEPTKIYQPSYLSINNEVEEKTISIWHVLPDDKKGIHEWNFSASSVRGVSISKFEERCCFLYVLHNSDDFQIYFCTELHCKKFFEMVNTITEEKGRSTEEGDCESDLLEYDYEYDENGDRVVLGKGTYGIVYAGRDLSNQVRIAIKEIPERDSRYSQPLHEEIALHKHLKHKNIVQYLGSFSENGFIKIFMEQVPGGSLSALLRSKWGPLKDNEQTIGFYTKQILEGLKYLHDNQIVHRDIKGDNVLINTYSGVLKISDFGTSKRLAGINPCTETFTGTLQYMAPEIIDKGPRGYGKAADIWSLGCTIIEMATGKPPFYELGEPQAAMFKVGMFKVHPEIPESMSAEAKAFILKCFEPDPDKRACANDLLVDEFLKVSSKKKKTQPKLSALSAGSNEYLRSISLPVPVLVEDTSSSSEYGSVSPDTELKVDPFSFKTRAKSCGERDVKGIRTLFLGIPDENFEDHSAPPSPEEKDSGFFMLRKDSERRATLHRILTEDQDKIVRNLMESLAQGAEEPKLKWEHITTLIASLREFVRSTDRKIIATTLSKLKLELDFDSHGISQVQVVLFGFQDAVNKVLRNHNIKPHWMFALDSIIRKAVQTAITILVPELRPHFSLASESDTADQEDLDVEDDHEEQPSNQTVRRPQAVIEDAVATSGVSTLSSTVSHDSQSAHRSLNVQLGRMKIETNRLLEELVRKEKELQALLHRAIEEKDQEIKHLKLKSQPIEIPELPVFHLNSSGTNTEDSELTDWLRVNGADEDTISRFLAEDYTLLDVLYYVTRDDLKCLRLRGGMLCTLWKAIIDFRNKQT
row,ΔTm [°C],Compound
1,0.1,COc1cc2ncnc(Nc3ccc(F)c(Cl)c3)c2cc1OCCCN1CCOCC1
2,-1,O=C1Nc2cc(Br)ccc2/C1=C1/Nc2ccccc2/C1=N\O
3,-0.4,COc1ccc(CNC(=O)Nc2ncc([N+](=O)[O-])s2)cc1
4,0.6,O=c1c(-c2ccc(F)cc2)c(-c2ccncc2)[nH]n1-c1ccc(Cl)cc1

row,Compound,ΔTm [°C]
1,"COC(=O)[C@]1(O)C[C@@H]2O[C@@]1(C)n1c3ccccc3c3c4c(c5c6ccccc6n2c5c31)C(=O)NC4 (single isomer, unassigned)",12.7

# Molecular target: Mitogen-activated protein kinase 6 (Homo sapiens) (UniProt Q16659)
# Sequence (Q16659 whole entry): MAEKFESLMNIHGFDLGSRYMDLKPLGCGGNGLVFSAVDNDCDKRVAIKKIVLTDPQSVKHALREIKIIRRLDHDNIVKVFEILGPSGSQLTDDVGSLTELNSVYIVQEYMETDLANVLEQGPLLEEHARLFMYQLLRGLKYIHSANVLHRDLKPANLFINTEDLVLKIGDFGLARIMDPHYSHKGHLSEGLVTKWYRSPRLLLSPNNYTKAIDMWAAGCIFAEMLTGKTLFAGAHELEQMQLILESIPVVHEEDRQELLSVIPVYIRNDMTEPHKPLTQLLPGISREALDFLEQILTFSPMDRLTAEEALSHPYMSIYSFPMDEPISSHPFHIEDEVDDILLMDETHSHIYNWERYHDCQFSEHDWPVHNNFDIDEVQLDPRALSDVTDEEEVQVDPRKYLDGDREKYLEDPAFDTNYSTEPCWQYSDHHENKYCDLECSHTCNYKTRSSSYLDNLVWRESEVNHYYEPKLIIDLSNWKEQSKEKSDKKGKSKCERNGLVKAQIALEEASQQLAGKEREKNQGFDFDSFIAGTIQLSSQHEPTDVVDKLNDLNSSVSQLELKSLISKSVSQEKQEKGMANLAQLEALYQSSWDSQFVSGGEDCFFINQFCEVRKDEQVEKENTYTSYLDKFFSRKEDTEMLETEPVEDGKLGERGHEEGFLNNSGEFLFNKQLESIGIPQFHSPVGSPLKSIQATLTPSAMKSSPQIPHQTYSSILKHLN
row,ΔTm [°C],Compound
1,0.8,COc1cc2ncnc(Nc3ccc(F)c(Cl)c3)c2cc1OCCCN1CCOCC1
2,-0.2,O=C1Nc2cc(Br)ccc2/C1=C1/Nc2ccccc2/C1=N\O
3,1,COc1ccc(CNC(=O)Nc2ncc([N+](=O)[O-])s2)cc1
4,0.7,O=c1c(-c2ccc(F)cc2)c(-c2ccncc2)[nH]n1-c1ccc(Cl)cc1

row,Compound,ΔTm [°C]
1,"COC(=O)[C@]1(O)C[C@@H]2O[C@@]1(C)n1c3ccccc3c3c4c(c5c6ccccc6n2c5c31)C(=O)NC4 (single isomer, unassigned)",0.3

# Molecular target: T2, Serine/threonine-protein kinase Nek2 (Homo sapiens) (UniProt P51955)
# T2 sequence (whole entry): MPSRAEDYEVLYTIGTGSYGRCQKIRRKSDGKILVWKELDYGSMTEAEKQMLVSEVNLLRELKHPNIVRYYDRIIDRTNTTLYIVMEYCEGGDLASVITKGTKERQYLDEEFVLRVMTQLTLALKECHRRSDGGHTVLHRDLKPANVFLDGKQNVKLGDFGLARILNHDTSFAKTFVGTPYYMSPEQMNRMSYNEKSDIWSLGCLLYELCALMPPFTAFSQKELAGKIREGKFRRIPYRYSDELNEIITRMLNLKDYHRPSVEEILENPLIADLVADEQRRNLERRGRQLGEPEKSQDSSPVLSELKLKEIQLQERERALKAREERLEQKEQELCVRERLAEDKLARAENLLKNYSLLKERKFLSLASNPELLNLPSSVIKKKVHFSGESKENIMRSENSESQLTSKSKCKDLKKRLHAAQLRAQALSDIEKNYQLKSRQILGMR
row,ΔTm [°C],Compound
1,1.1,COc1cc2ncnc(Nc3ccc(F)c(Cl)c3)c2cc1OCCCN1CCOCC1
2,0.7,O=C1Nc2cc(Br)ccc2/C1=C1/Nc2ccccc2/C1=N\O
3,0.6,COc1ccc(CNC(=O)Nc2ncc([N+](=O)[O-])s2)cc1
4,1.4,O=c1c(-c2ccc(F)cc2)c(-c2ccncc2)[nH]n1-c1ccc(Cl)cc1

row,Compound,ΔTm [°C]
1,"COC(=O)[C@]1(O)C[C@@H]2O[C@@]1(C)n1c3ccccc3c3c4c(c5c6ccccc6n2c5c31)C(=O)NC4 (single isomer, unassigned)",1.9

# Molecular target: Cyclin-dependent kinase 16 (Homo sapiens) (UniProt Q00536)
# Sequence (Q00536 whole entry): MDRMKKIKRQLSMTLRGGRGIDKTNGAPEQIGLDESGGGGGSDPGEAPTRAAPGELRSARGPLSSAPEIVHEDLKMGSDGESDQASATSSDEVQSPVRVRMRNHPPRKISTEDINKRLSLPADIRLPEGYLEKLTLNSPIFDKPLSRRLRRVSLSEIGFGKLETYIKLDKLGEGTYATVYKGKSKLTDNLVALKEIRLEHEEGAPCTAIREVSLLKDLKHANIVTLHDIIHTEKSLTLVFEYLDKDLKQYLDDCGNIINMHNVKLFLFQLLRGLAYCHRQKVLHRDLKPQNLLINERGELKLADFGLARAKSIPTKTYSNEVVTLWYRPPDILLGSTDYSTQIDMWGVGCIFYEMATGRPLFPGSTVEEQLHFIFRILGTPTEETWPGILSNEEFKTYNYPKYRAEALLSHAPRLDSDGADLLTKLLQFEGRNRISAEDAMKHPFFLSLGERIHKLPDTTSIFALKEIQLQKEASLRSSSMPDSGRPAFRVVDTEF
row,ΔTm [°C],Compound
1,-0.3,COc1cc2ncnc(Nc3ccc(F)c(Cl)c3)c2cc1OCCCN1CCOCC1
2,-1.7,O=C1Nc2cc(Br)ccc2/C1=C1/Nc2ccccc2/C1=N\O
3,-0.8,COc1ccc(CNC(=O)Nc2ncc([N+](=O)[O-])s2)cc1
4,0.3,O=c1c(-c2ccc(F)cc2)c(-c2ccncc2)[nH]n1-c1ccc(Cl)cc1

row,Compound,ΔTm [°C]
1,"COC(=O)[C@]1(O)C[C@@H]2O[C@@]1(C)n1c3ccccc3c3c4c(c5c6ccccc6n2c5c31)C(=O)NC4 (single isomer, unassigned)",0.8

# Molecular target: Serine/threonine-protein kinase PLK1 (Homo sapiens) (UniProt P53350)
# Sequence (P53350 whole entry): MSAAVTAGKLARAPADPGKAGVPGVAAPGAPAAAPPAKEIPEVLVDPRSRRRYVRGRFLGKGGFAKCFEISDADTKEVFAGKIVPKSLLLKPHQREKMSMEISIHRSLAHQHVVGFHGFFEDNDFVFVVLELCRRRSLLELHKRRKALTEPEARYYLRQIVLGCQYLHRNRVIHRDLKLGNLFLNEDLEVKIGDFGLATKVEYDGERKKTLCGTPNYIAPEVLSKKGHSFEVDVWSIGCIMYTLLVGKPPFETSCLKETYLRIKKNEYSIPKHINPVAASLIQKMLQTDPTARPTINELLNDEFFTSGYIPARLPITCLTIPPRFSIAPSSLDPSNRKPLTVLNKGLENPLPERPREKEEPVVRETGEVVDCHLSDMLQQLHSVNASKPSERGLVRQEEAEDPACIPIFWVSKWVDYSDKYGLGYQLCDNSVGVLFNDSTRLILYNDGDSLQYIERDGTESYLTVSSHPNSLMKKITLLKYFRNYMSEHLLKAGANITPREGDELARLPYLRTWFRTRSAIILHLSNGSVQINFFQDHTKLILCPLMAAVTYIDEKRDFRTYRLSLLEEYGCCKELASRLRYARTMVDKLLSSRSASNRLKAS
row,ΔTm [°C],Compound
1,1.2,COc1cc2ncnc(Nc3ccc(F)c(Cl)c3)c2cc1OCCCN1CCOCC1
2,0.1,O=C1Nc2cc(Br)ccc2/C1=C1/Nc2ccccc2/C1=N\O
3,0.7,COc1ccc(CNC(=O)Nc2ncc([N+](=O)[O-])s2)cc1
4,0.3,O=c1c(-c2ccc(F)cc2)c(-c2ccncc2)[nH]n1-c1ccc(Cl)cc1

row,Compound,ΔTm [°C]
1,"COC(=O)[C@]1(O)C[C@@H]2O[C@@]1(C)n1c3ccccc3c3c4c(c5c6ccccc6n2c5c31)C(=O)NC4 (single isomer, unassigned)",2.6

# Molecular target: Serine/threonine-protein kinase 10 (Homo sapiens) (UniProt O94804)
# Sequence (O94804 whole entry, looked up): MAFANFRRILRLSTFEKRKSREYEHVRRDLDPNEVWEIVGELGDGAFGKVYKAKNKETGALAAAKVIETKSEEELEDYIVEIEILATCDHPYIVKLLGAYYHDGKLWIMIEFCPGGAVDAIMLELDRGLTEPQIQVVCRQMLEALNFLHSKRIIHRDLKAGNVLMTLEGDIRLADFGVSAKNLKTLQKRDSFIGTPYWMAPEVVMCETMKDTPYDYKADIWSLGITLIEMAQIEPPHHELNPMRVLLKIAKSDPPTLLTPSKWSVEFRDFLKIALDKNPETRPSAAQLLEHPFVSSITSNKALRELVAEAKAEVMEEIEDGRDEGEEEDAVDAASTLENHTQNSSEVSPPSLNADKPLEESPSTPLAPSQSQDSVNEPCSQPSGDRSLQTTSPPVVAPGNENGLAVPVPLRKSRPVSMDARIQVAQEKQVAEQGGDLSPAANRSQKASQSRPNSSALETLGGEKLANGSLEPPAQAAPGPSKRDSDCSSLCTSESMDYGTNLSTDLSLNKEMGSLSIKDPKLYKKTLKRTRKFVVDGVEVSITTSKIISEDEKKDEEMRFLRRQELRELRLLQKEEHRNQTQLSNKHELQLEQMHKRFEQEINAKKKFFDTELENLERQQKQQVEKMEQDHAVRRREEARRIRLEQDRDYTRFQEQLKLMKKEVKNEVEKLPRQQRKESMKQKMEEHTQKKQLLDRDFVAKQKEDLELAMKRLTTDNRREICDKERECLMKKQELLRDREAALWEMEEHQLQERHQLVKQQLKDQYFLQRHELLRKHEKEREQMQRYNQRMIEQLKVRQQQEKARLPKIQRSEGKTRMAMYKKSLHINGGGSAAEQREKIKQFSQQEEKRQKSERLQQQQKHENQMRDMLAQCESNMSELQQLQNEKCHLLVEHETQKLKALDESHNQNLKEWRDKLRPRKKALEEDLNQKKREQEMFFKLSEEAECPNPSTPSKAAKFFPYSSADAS
row,ΔTm [°C],Compound
1,0,COc1cc2ncnc(Nc3ccc(F)c(Cl)c3)c2cc1OCCCN1CCOCC1
2,7.7,O=C1Nc2cc(Br)ccc2/C1=C1/Nc2ccccc2/C1=N\O
3,1.1,COc1ccc(CNC(=O)Nc2ncc([N+](=O)[O-])s2)cc1
4,4.3,O=c1c(-c2ccc(F)cc2)c(-c2ccncc2)[nH]n1-c1ccc(Cl)cc1

row,Compound,ΔTm [°C]
1,"COC(=O)[C@]1(O)C[C@@H]2O[C@@]1(C)n1c3ccccc3c3c4c(c5c6ccccc6n2c5c31)C(=O)NC4 (single isomer, unassigned)",10.9

# Molecular target: T3, Serine/threonine-protein kinase 4 (Homo sapiens) (UniProt Q13043)
# T3 sequence (whole entry): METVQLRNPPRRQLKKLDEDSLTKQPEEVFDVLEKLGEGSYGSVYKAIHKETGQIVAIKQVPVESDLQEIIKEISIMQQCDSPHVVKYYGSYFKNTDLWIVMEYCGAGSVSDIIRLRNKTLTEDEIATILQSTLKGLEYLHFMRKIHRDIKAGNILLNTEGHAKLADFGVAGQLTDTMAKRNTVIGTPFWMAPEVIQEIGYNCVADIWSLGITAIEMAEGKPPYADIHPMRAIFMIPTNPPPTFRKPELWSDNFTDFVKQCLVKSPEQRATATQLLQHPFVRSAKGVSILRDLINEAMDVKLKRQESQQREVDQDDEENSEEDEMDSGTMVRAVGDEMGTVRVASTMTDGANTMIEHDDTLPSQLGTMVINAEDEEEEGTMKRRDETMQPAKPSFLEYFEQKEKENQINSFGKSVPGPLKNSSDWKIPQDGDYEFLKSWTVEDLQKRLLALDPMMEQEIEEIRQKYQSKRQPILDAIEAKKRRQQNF
row,ΔTm [°C],Compound
1,1.6,COc1cc2ncnc(Nc3ccc(F)c(Cl)c3)c2cc1OCCCN1CCOCC1
2,4.4,O=C1Nc2cc(Br)ccc2/C1=C1/Nc2ccccc2/C1=N\O
3,0.4,COc1ccc(CNC(=O)Nc2ncc([N+](=O)[O-])s2)cc1
4,1.8,O=c1c(-c2ccc(F)cc2)c(-c2ccncc2)[nH]n1-c1ccc(Cl)cc1

row,Compound,ΔTm [°C]
1,"COC(=O)[C@]1(O)C[C@@H]2O[C@@]1(C)n1c3ccccc3c3c4c(c5c6ccccc6n2c5c31)C(=O)NC4 (single isomer, unassigned)",9.5
